Measurements from patent publication US8030487B2, “2-amino—5-substituted pyrimidine inhibitors” (TargeGen, Inc., priority 2006, dated 2011).

What was measured:
human c-Src = target: T1, human c-Src (Homo sapiens, UniProt P12931); test: Src kinase inhibition (KinaseGlo residual ATP); type: biochemical; conditions: ATP 3 μM, 90 min room temperature
T1 construct: purchased Panvera/Invitrogen
Procedure: (§1) The ability of compounds of the present invention to inhibit the activity of various groups of kinases was tested. Kinases that were tested are described below. All kinase reactions were conducted in 96-well plates with a final reaction volume of 50 μl.
Recombinant human c-Src or Yes, or Fyn, or Lck (28 ng/well, Panvera/Invitrogen, Madison Wis.), ATP (3 μM), a tyrosine kinase substrate (PTK2, 250 μM, Promega Corp., Madison Wis.), and test agents (at concentrations ranging from about 1 nM/l to about 100 μM/l), in the presence of Src kinase reaction buffer (Upstate USA, Lake Placid N.Y.). After reacting for about 90 minutes at room temperature, residual ATP was determined using a luciferase-based assay (KinaseGlo, Promega Corp.) as a measure of kinase activity. Data from four wells were then averaged and used to determine IC50 values for the test compounds (Prism software package, GraphPad Software, San Diego Calif.).

VEGFR2 = target: T2, VEGFR2 (Homo sapiens, UniProt P35968); test: VEGFR2 kinase inhibition (residual ATP luminescence); type: biochemical; conditions: 1.5 uM ATP, 60 min 37° C.
T2 construct: purchased Cell Signaling/ProQinase
T2 sequence (P35968 20-1356, species assumed): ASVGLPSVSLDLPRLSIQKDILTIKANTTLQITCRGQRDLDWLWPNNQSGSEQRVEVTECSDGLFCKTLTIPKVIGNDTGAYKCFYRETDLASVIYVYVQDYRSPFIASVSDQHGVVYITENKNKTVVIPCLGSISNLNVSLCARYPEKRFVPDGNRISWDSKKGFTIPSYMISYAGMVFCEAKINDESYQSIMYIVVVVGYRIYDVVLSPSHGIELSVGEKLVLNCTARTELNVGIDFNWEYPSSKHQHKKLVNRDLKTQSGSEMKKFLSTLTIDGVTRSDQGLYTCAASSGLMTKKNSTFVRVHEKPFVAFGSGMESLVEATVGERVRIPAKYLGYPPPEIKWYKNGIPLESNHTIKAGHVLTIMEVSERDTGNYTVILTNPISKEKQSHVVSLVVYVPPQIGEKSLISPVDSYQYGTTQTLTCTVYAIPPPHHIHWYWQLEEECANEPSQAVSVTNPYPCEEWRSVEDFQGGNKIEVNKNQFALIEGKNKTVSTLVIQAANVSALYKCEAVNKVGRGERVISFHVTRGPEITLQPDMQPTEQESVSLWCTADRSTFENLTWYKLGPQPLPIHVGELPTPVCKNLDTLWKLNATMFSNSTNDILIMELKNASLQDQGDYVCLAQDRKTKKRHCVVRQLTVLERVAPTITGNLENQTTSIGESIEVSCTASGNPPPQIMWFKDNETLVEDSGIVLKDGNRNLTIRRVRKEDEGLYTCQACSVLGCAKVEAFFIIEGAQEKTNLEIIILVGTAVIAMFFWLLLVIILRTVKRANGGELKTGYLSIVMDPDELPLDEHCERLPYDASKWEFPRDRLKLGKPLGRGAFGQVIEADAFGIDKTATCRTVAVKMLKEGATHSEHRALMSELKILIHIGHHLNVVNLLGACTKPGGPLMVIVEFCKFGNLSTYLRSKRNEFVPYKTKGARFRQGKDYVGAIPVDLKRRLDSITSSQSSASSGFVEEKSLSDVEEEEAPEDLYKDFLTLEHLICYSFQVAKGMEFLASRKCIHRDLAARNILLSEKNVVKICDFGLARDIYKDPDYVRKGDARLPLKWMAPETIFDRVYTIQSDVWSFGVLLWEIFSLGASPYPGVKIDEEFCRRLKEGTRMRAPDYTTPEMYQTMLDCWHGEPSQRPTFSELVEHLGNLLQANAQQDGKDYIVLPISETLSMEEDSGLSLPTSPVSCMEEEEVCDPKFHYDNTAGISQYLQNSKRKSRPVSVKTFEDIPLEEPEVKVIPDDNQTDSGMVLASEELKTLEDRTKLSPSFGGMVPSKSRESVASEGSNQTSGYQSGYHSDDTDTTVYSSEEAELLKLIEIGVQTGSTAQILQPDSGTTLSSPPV
Procedure: as §1
EGFR and VEGFR2 kinase assays were similarly performed. EGFR (76 ng/well, Panvera/Invitrogen) was combined with 12.5 mg/ml poly(glu4tyr) (Sigma) and 2.5 uM ATP. VEGFR2 (14.1 U/well, Cell Signaling/ProQinase) was used with 0.3 mg/ml poly(glu4tyr) and 1.5 uM ATP. Both were incubated for 60 minutes at 37° C., and the residual ATP was measured via luminescence, per the procedure described above.

T1 sequence (P12931 whole entry): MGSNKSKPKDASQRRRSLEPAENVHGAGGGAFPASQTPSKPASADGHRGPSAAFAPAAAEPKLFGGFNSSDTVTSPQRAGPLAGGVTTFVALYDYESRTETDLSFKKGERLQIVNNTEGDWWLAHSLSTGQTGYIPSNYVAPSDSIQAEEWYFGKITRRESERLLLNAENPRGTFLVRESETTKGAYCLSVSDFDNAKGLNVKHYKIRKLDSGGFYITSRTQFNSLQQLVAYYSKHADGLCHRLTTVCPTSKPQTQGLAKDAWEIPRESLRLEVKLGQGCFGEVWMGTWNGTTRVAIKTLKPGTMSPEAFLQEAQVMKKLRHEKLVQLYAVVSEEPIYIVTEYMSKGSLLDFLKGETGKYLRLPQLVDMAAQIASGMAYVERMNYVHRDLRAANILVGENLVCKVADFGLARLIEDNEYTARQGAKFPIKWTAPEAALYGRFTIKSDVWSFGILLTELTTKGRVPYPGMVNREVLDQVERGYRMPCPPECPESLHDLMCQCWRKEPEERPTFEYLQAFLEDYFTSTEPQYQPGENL

SMILES | IC50 (human c-Src) [µM] | IC50 (VEGFR2) [µM]
O=C(Nc1ccc(Cl)c(C(=O)Nc2cnc(Nc3ccc(C(=O)N4CCN(CCO)CC4)nc3)nc2)c1)c1cccc(C(F)(F)F)c1 | 0.0019 | 0.0031
Cc1ccc(NC(=O)c2cccc(C(F)(F)F)c2)cc1C(=O)Nc1cnc(Nc2ccc(S(=O)(=O)CCCN3CCCC3)cc2)nc1 | 0.0038 | 0.0142
O=C(Nc1ccc(Cl)c(C(=O)Nc2cnc(Nc3ccc(C(=O)NCCN4CCCC4)nc3)nc2)c1)c1cccc(C(F)(F)F)c1 | 0.005 | –
Cc1ccc(NC(=O)c2cccc(C(F)(F)F)c2)cc1C(=O)Nc1cnc(Nc2ccc(C(=O)NCCN3CCCC3)nc2)nc1 | 0.0041 | 0.021
O=C(NCCN1CCCC1)c1ccc(Nc2ncc(NC(=O)c3cc(NC(=O)c4cccc(C(F)(F)F)c4)ccc3Cl)cn2)cc1 | 0.0014 | 0.0022
Cc1ccc(NC(=O)c2c(F)cc(F)cc2F)cc1C(=O)Nc1cnc(Nc2cccc(CCCN3CCCC3)c2)nc1 | 0.102 | –
Cc1ccc(NC(=O)c2cccc(C(F)(F)F)c2)cc1C(=O)Nc1cnc(Nc2ccc(C(=O)NCCN3CCCC3)cc2)nc1 | 0.0017 | –
CN1CCN(C(=O)c2ccc(Nc3ncc(NC(=O)c4cc(NC(=O)c5cccc(C(F)(F)F)c5)ccc4Cl)cn3)cc2)CC1 | 0.0017 | 0.0023
CN1CCN(C(=O)c2ccc(Nc3ncc(NC(=O)c4cc(NC(=O)c5cccnc5)ccc4Cl)cn3)cc2)CC1 | 0.0932 | –
Cc1ccc(NC(=O)c2cccc(C(F)(F)F)c2)cc1Nc1cnc(Nc2cccc(CCCN3CCCC3)c2)nc1 | 0.755 | –
O=C(Nc1ccc(Cl)c(C(=O)Nc2cnc(Nc3ccc(OCCN4CCCC4)cc3)nc2)c1)c1cccc(F)c1 | 0.003 | 0.0407
Cc1cccc(C(=O)Nc2ccc(Cl)c(C(=O)Nc3cnc(Nc4ccc(S(=O)(=O)CCCN5CCCC5)cc4)nc3)c2)c1 | 0.0116 | –
Cc1ccc(NC(=O)Nc2cccc(C(F)(F)F)c2)cc1C(=O)Nc1cnc(Nc2cccc(OCCN3CCCC3)c2)nc1 | 0.0018 | 0.0731
Cc1ccc(NC(=O)c2ccccc2)cc1C(=O)Nc1cnc(Nc2cccc(OCCN3CCCC3)c2)nc1 | 0.0166 | –
O=C(Nc1ccc(Cl)c(C(=O)Nc2cnc(Nc3ccc(S(=O)(=O)C4CCNCC4)cc3)nc2)c1)c1cccs1 | 0.0382 | –
N#Cc1ccc(C(=O)Nc2ccc(Cl)c(C(=O)Nc3cnc(Nc4ccc(S(=O)(=O)C5CCNCC5)cc4)nc3)c2)cc1 | 0.032 | –
COc1ccc(C(=O)Nc2ccc(Cl)c(C(=O)Nc3cnc(Nc4ccc(S(=O)(=O)C5CCNCC5)cc4)nc3)c2)cc1 | 0.0175 | –
O=C(Nc1cnc(Nc2cccnc2)nc1)c1cc(Nc2ccc3ccccc3n2)ccc1Cl | 0.454 | –
Cc1ccc(NC(=O)C(C)(C)C)cc1C(=O)Nc1cnc(Nc2ccc(OCCN3CCCC3)cc2)nc1 | > 10 | –
Cc1ccc(NC(=O)Nc2ccccc2)cc1C(=O)Nc1cnc(Nc2ccc(OCCN3CCCC3)cc2)nc1 | 0.0045 | 0.168
O=C(Nc1ccc(Cl)c(C(=O)Nc2cnc(Nc3ccc(S(=O)(=O)C4CCNCC4)cc3)nc2)c1)c1cc(C(F)(F)F)ccc1F | 0.0042 | 0.0223

SMILES | IC50 (human c-Src) [µM] | IC50 (VEGFR2) [µM]
O=C(Nc1ccc(Cl)c(C(=O)Nc2cnc(Nc3ccc(S(=O)(=O)C4CCNCC4)cc3)nc2)c1)c1cccc(Cl)c1 | 0.0025 | 0.0116
Cc1ccc(NC(=O)Nc2cccc(C(F)(F)F)c2)cc1C(=O)Nc1cnc(Nc2cccnc2)nc1 | 0.0079 | 0.0278
O=C(Nc1cnc(Nc2ccc(S(=O)(=O)CCCN3CCCC3)cc2)nc1)c1cccc(NC(=O)c2cccc(C(F)(F)F)c2)c1 | 0.0674 | –
O=C(Nc1cnc(Nc2ccc(OCCN3CCCC3)cc2)nc1)c1cc(NC(=O)C2CCCCC2)ccc1Cl | 0.0194 | –
Cc1ccc(NC(=O)Cc2cccc(C(F)(F)F)c2)cc1C(=O)Nc1cnc(Nc2cccnc2)nc1 | 0.0569 | –
O=C(Nc1cnc(Nc2cccc(OCCN3CCCC3)c2)nc1)c1cc(Nc2ccccn2)ccc1Cl | 0.169 | –
O=C(Nc1ccc(C(=O)Nc2cnc(Nc3cccc(OCCN4CCCC4)c3)nc2)c(Cl)c1)c1cccc(C(F)(F)F)c1 | 0.0657 | –
CCOC(=O)c1cccc(Nc2ncc(NC(=O)c3cc(NC(=O)c4cccc(C(F)(F)F)c4)ccc3Cl)cn2)c1 | 0.0134 | –
Nc1ncc(NC(=O)c2cc(NC(=O)c3cccc(C(F)(F)F)c3)ccc2Cl)cn1 | 0.072 | –
O=C(Nc1ccc(Cl)c(CNc2cnc(Nc3cccnc3)nc2)c1)c1cccc(C(F)(F)F)c1 | 0.0102 | 0.0021
CC(=O)Nc1ccc(Cl)c(C(=O)Nc2cnc(Nc3ccc(S(=O)(=O)C4CCNCC4)cc3)nc2)c1 | 2.6 | –
O=C(Nc1cnc(Nc2ccc(CCCN3CCCC3)cc2)nc1)c1cc(Nc2ccc3ccccc3n2)ccc1Cl | 0.407 | –
O=C(Nc1ccc(Cl)c(C(=O)Nc2cnc(NCCN3CCCC3)nc2)c1)c1cccc(C(F)(F)F)c1 | > 10 | –
Cc1cc(C(=O)Nc2ccc(Cl)c(C(=O)Nc3cnc(Nc4ccc(OCCN5CCCC5)cc4)nc3)c2)no1 | 0.0775 | –
O=C(Nc1ccc(Cl)c(C(=O)Nc2cnc(Nc3cccc(S(=O)(=O)NCCN4CCCC4)c3)nc2)c1)c1cccc(C(F)(F)F)c1 | 0.004 | 0.0021
O=C(Nc1ccc(Cl)c(C(=O)Nc2cnc(Nc3ccc(OCCN4CCCC4)cc3)nc2)c1)c1ccc(C(F)(F)F)cc1 | 0.0033 | 0.012
O=C(Nc1cccc(C(F)(F)F)c1)Nc1ccc(Cl)c(C(=O)Nc2cnc(Nc3cccnc3)nc2)c1 | 0.0142 | 0.0201
Cc1ccc(S(=O)(=O)NCc2ccccc2)cc1Nc1cnc(Nc2ccc(S(=O)(=O)NCCN3CCCC3)cc2)nc1 | 1.3 | –
Cc1ccc(S(N)(=O)=O)cc1Nc1cnc(Nc2ccc(S(=O)(=O)NCCN3CCCC3)cc2)nc1 | ~10 | –
O=C(Nc1ccc(Cl)c(NC(=O)c2cnc(Nc3ccc(OCCN4CCCC4)cc3)nc2)c1)c1cccc(C(F)(F)F)c1 | 0.05 | 0.043
O=C(Nc1ccc(Cl)c(NC(=O)c2cnc(Nc3cccc(OCCN4CCCC4)c3)nc2)c1)c1cccc(C(F)(F)F)c1 | 0.067 | 0.149

SMILES | IC50 (human c-Src) [µM] | IC50 (VEGFR2) [µM]
O=C(Nc1ccc(Cl)c(NC(=O)c2cnc(Nc3cccnc3)nc2)c1)c1cccc(C(F)(F)F)c1 | 0.086 | 0.178
COc1ccc(Nc2ncc(NC(=O)c3cc(NC(=O)c4cccc(C(F)(F)F)c4)ccc3Cl)cn2)cc1 | 0.012 | 0.023
O=C(Nc1ccc(Cl)c(C(=O)Nc2cnc(Nc3ccc(O)cc3)nc2)c1)c1cccc(C(F)(F)F)c1 | 0.019 | 0.015
O=C(Nc1ccc(Cl)c(C(=O)Nc2cnc(Nc3ccc(OC(=O)c4ccccc4)cc3)nc2)c1)c1cccc(C(F)(F)F)c1 | 0.647 | 0.361
Cc1cccc(NC(=O)c2cccc(C(=O)Nc3cnc(Nc4ccc(S(=O)(=O)CCCN5CCCC5)cc4)nc3)c2)c1 | – | 0.164
O=C(Nc1ccc(Cl)c(C(=O)Nc2cnc(Nc3ccc(S(=O)(=O)CCCN4CCCC4)cc3)nc2)c1)c1cccc(C(F)(F)F)c1 [drawing 161] | – | 0.0029
O=C(Nc1ccc(Cl)c(C(=O)Nc2cnc(Nc3cccc(OCCN4CCCC4)c3)nc2)c1)c1cccc(C(F)(F)F)c1 [drawing 162] | 0.0021 | 0.0027
Cc1ccc(NC(=O)c2cccc(C(F)(F)F)c2)cc1C(=O)Nc1cnc(Nc2cccc(OCCN3CCCC3)c2)nc1 [drawing 163] | 0.0039 | 0.0138
O=C(Nc1cnc(Nc2cccc(OCCN3CCCC3)c2)nc1)c1cc(NC(=O)C(F)(F)F)ccc1Cl [drawing 168] | 0.0634 | –
O=C(Nc1ccc(Cl)c(C(=O)Nc2cnc(Nc3ccc(S(=O)(=O)C4CCNCC4)cc3)nc2)c1)c1cccc(C(F)(F)F)c1 [drawing 169] | 0.0018 | 0.0045
Cc1ccc(NC(=O)c2cccc(C(F)(F)F)c2)cc1C(=O)Nc1cnc(Nc2ccc(OCCN3CCCC3)cc2)nc1 [drawing 170] | 0.0033 | 0.0032
O=C(Nc1ccc(Cl)c(C(=O)Nc2cnc(Nc3ccc(OCCN4CCCC4)cc3)nc2)c1)c1cccc(C(F)(F)F)c1 [drawing 171] | 0.0012 | 0.0008
O=C(Nc1ccc(Cl)c(C(=O)Nc2cnc(Nc3ccc(CCCN4CCCC4)cc3)nc2)c1)c1cccc(C(F)(F)F)c1 [drawing 172] | 0.0028 | –
Cc1ccc(NC(=O)C(F)(F)F)cc1C(=O)Nc1cnc(Nc2cccc(OCCN3CCCC3)c2)nc1 [drawing 173] | 0.0506 | –
O=C(Nc1ccc(Cl)c(C(=O)Nc2cnc(Nc3ccc(CCCN4CCCC4)cc3)nc2)c1)c1cccc(C(F)(F)F)c1 [drawing 180] | 0.0026 | –
O=C(Nc1ccc(Cl)c(C(=O)Nc2cnc(Nc3ccccc3)nc2)c1)c1cccc(C(F)(F)F)c1 [drawing 181] | 0.0045 | 0.0096
Cc1ccc(Nc2nccc3ccccc23)cc1C(=O)Nc1cnc(Nc2cccc(OCCN3CCCC3)c2)nc1 [drawing 186] | 0.0233 | 3.35
O=C(Nc1cccc(C(F)(F)F)c1)Nc1ccc(Cl)c(C(=O)Nc2cnc(Nc3ccc(OCCN4CCCC4)cc3)nc2)c1 [drawing 202] | 0.0022 | 0.0071
O=C(Nc1ccc(Cl)c(C(=O)Nc2cnc(Nc3cccnc3)nc2)c1)c1cccc(C(F)(F)F)c1 [drawing 211] | 0.0047 | 0.0054
